In publication PMC4548311 (Journal of Biomolecular Structure & Dynamics, 2014):

Assays:
[1] = target: monomeric wt NP (nucleoprotein of influenza A virus) (Influenza A virus, UniProt P15682); test: biochemical; format: binding
wt NP [2] = format: biochemical
wt NP [3] = target: wt NP (Influenza A virus, UniProt P15682); format: biochemical
influenza A virus = details: mouse, in vivo; cited from earlier work

wt NP (Influenza A virus, UniProt P15682), sequence (P15682 whole entry, looked up): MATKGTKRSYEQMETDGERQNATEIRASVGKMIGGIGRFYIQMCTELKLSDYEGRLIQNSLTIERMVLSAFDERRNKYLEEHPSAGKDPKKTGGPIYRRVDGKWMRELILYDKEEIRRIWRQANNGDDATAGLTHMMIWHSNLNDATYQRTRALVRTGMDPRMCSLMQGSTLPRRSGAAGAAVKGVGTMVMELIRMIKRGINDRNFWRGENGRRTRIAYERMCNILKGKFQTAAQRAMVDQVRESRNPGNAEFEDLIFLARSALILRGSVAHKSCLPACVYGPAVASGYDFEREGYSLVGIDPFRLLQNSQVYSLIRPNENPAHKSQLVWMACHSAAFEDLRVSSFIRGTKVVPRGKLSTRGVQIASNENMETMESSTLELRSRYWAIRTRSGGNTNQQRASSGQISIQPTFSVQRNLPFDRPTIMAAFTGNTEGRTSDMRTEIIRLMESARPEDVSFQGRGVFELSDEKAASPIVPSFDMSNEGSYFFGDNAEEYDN
monomeric wt NP (nucleoprotein of influenza A virus), sequence (P15682 whole entry, looked up): as above

With `COc1ccc2cc([C@H](C)C(=O)O)ccc2c1` [Naproxen, naproxen] the “% Total inhibition” value [1] was 70 ± 7%, the inhibition at 1 µM ([1]; read-out: % Inhibition at 1 µM) was 5% and the “disruption of already assembled trimers” value (wt NP [2]) was “could not disrupt already assembled trimers”. For the same compound, the “apparent size of the NP–RNA complex” value (wt NP [3]) was 21–23 nm, the “effect on NP oligomerization into trimers–tetramers” value (wt NP [3]) was “stabilized the monomeric form” and the “effect on RNA-free self-association of NP” value (wt NP [3]) was “stabilized monomeric NP and avoided trimers/tetramers formation”. The “effect on dimer formation” value (wt NP [3]) was “impeded dimer formation”, the “antiviral effects in mice” value (influenza A virus) was “antiviral effects” and the lung bleeding (influenza A virus) was “reduced lung bleeding”.
